SMILES strings stand for the structures. Values joined by “and” are separate entries in the source; they are usually repeats but may differ in a detail not shown here. Equal entries are not always repeated. Records with an inconclusive call do not appear.

This test has as its system BDF1 mice, Friend leukemia sc, tumor weight T/C. Put plainly: NCI In Vivo Anticancer Drug Screen. Data for tumor model Friend Virus Leukemia (Solid) (subcutaneous) in B6D2F1 (BDF1) mice. The following applies: endpoint: mean tumor weight, schedule: Q01DX011 (ip), higher = larger tumour. As for the experimental part:
The antitumor activity of compounds was measured in mice bearing transplantable tumors. Survival or tumor size were measured and the results are expressed as the measurement made in the treated group (T) divided by the measurement made in the vehicle treated control group (C). The tumor model used in this assay is Friend Virus Leukemia (Solid) (subcutaneous) in B6D2F1 (BDF1) mice

The mark [1] stands for this setting: dose: 0.75 mg/kg/injection, vehicle: carboxymethylcellulose (CMC).
Where [2] appears, read: dose: 1.5 mg/kg/injection, vehicle: carboxymethylcellulose (CMC).
[3] abbreviates: dose: 12.0 mg/kg/injection, vehicle: carboxymethylcellulose (CMC).
The mark [4] stands for this setting: dose: 125.0 mg/kg/injection, vehicle: carboxymethylcellulose (CMC).
The mark [5] stands for this setting: dose: 250.0 mg/kg/injection, vehicle: carboxymethylcellulose (CMC).
Where [6] appears, read: dose: 500.0 mg/kg/injection, vehicle: carboxymethylcellulose (CMC).
[7] abbreviates: dose: 62.5 mg/kg/injection, vehicle: carboxymethylcellulose (CMC).
Where [8] appears, read: dose: 25.0 mg/kg/injection, vehicle: carboxymethylcellulose (CMC).
[9] abbreviates: dose: 100.0 mg/kg/injection, vehicle: carboxymethylcellulose (CMC).
[10] abbreviates: dose: 5.0 mg/kg/injection, vehicle: saline.
Setting [11] is: dose: 15.0 mg/kg/injection, vehicle: saline.

Regarding `N=[N+]=CC(=O)OCC(N)C(=O)O` (stereo not drawn), the T/C reads like this: (dose: 0.38 mg/kg/injection, vehicle: carboxymethylcellulose (CMC)) 49 % of control; under setting [1], 37 % of control; under setting [2], 39 % of control and 44 % of control; (dose: 1.8 mg/kg/injection, vehicle: carboxymethylcellulose (CMC)) 108 % of control; (dose: 9.0 mg/kg/injection, vehicle: carboxymethylcellulose (CMC)) 33 % of control; under setting [3], 22 % of control and 44 % of control. Further, the T/C (dose: 15.0 mg/kg/injection, vehicle: carboxymethylcellulose (CMC)) was 29 % of control.

Regarding `OCCc1ccccc1`, the T/C is 83 % of control (dose: 62.0 mg/kg/injection, vehicle: carboxymethylcellulose (CMC)); 63 % of control under setting [4]; 57 % of control under setting [5]; 51 % of control under setting [6].

As to `CCCCCCCCCCCC[n+]1c(C)cc(N)c2ccccc21`, where the note is “dose: 0.1 mg/kg/injection, vehicle: carboxymethylcellulose (CMC)”, the T/C is 182 % of control.

With `CC(C)CCS(=O)(=O)OCCCCOS(=O)(=O)CCC(C)C`, the T/C is, setting by setting: under setting [7], 98 % of control; under setting [4], 97 % of control; under setting [5], 73 % of control; under setting [6], 39 % of control.

With `Nc1nc2ncc(CNc3ccc(C(=O)NC(CCC(=O)O)C(=O)O)cc3)nc2c(=O)[nH]1` (stereo not drawn), the T/C is 56 % of control (dose: 7.0 mg/kg/injection, vehicle: carboxymethylcellulose (CMC)); 105 % of control (dose: 14.0 mg/kg/injection, vehicle: carboxymethylcellulose (CMC)); 79 % of control (dose: 28.0 mg/kg/injection, vehicle: carboxymethylcellulose (CMC)); 70 % of control (dose: 56.0 mg/kg/injection, vehicle: carboxymethylcellulose (CMC)).

Take `Nc1ccc2ccccc2c1N=Nc1ccccc1`: the T/C under setting [7] was 66 % of control; the T/C under setting [4] is 58 % of control; the T/C under setting [6] is 25 % of control and 27 % of control.

Consider `NC(C=O)C(O)C(O)C(O)CO` (stereo not drawn), for which the T/C reads like this: under setting [4], 102 % of control; under setting [5], 168 % of control; (dose: 1000.0 mg/kg/injection, vehicle: carboxymethylcellulose (CMC)) 115 % of control.

`Cc1nc(N)nc(N)c1-c1ccc(Cl)c(Cl)c1`: the T/C is, setting by setting: under setting [1], 96 % of control; under setting [2], 105 % of control; (dose: 3.0 mg/kg/injection, vehicle: carboxymethylcellulose (CMC)) 59 % of control.

Regarding `O=c1c[n+](-c2ccccc2)[nH]o1`, the T/C is, setting by setting: (dose: 22.5 mg/kg/injection, vehicle: carboxymethylcellulose (CMC)) 89 % of control; (dose: 45.0 mg/kg/injection, vehicle: carboxymethylcellulose (CMC)) 76 % of control; (dose: 90.0 mg/kg/injection, vehicle: carboxymethylcellulose (CMC)) 74 % of control; (dose: 180.0 mg/kg/injection, vehicle: carboxymethylcellulose (CMC)) 78 % of control.

Take `CSc1ncnc2c1ncn2C1CCCO1` (stereo not drawn): the T/C under setting [3] is 96 % of control; the T/C under setting [8] was 45 % of control; the T/C under setting [9] is 3 % of control and 9 % of control.

Consider `C=CC(CN1CC1)OC(C)=O` (stereo not drawn), for which the T/C is, setting by setting: (dose: 1.2 mg/kg/injection, vehicle: carboxymethylcellulose (CMC)) 70 % of control; (dose: 2.4 mg/kg/injection, vehicle: carboxymethylcellulose (CMC)) 89 % of control; (dose: 2.5 mg/kg/injection, vehicle: saline) 50 % of control; (dose: 4.8 mg/kg/injection, vehicle: carboxymethylcellulose (CMC)) 36 % of control; under setting [10], 31 % of control; (dose: 7.5 mg/kg/injection, vehicle: saline) 26 % of control. The T/C (dose: 9.9 mg/kg/injection, vehicle: saline) was 3 % of control.

For the molecule `CNC=O`, the T/C (dose: 12.5 mg/kg/injection, vehicle: carboxymethylcellulose (CMC)) was 80 % of control; the T/C under setting [8] was 57 % of control and 38 % of control; the T/C (dose: 41.62 mg/kg/injection, vehicle: carboxymethylcellulose (CMC)) was 124 % of control; the T/C (dose: 42.0 mg/kg/injection, vehicle: carboxymethylcellulose (CMC)) is 92 % of control; the T/C (dose: 43.0 mg/kg/injection, vehicle: carboxymethylcellulose (CMC)) is 79 % of control; the T/C (dose: 50.0 mg/kg/injection, vehicle: carboxymethylcellulose (CMC)) is 43 % of control. Further, the T/C is 92 % of control (dose: 83.25 mg/kg/injection, vehicle: carboxymethylcellulose (CMC)); 91 % of control (dose: 85.0 mg/kg/injection, vehicle: carboxymethylcellulose (CMC)); 109 % of control (dose: 86.0 mg/kg/injection, vehicle: carboxymethylcellulose (CMC)); 53 % of control under setting [9]; 91 % of control (dose: 176.5 mg/kg/injection, vehicle: carboxymethylcellulose (CMC)); 39 % of control (dose: 200.0 mg/kg/injection, vehicle: carboxymethylcellulose (CMC)). For the same molecule, the T/C is 84 % of control under setting [5]; 57 % of control (dose: 275.0 mg/kg/injection, vehicle: carboxymethylcellulose (CMC)); 41 % of control (dose: 343.0 mg/kg/injection, vehicle: carboxymethylcellulose (CMC)).

In the case of `CN(N=O)C(N)=O`, the T/C is, setting by setting: (dose: 4.0 mg/kg/injection, vehicle: carboxymethylcellulose (CMC)) 94 % of control and 95 % of control; under setting [10], 53 % of control; (dose: 8.0 mg/kg/injection, vehicle: carboxymethylcellulose (CMC)) 98 % of control and 117 % of control; (dose: 10.0 mg/kg/injection, vehicle: saline) 31 % of control; under setting [11], 20 % of control; (dose: 16.0 mg/kg/injection, vehicle: carboxymethylcellulose (CMC)) 46 % of control and 49 % of control. In addition, the T/C is 22 % of control (dose: 22.0 mg/kg/injection, vehicle: saline) and 59 % of control (dose: 30.0 mg/kg/injection, vehicle: carboxymethylcellulose (CMC)).

With `CCN(CC)c1ccc2cc3ccc(=[N+](CC)CC)cc-3oc2c1`, for the setting “dose: 5.0 mg/kg/injection, vehicle: carboxymethylcellulose (CMC)”, the T/C is 102 % of control.

As for `CSc1ncnc2c1ncn2C1OC(CO)C(O)C1O` (stereo not drawn), the T/C runs as follows: (dose: 6.0 mg/kg/injection, vehicle: saline) 105 % of control; (dose: 9.0 mg/kg/injection, vehicle: saline) 121 % of control; (dose: 12.5 mg/kg/injection, vehicle: saline) 99 % of control; under setting [11], 112 % of control.

With `CC1(C)N=C(N)N=C(N)N1c1cccc(Br)c1`, the T/C under setting [8] is 88 % of control.

Consider `C=C(C)C(=O)OCC1CO1` (stereo not drawn), for which the T/C was 99 % of control (dose: 50.0 mg/kg/injection, vehicle: water) and 110 % of control (dose: 100.0 mg/kg/injection, vehicle: water).

Turning to `O=C(N[C@H](CO)[C@H](O)c1ccc([N+](=O)[O-])cc1)C(Cl)Cl`, the T/C (dose: 47.0 mg/kg/injection, vehicle: carboxymethylcellulose (CMC)) was 105 % of control; the T/C (dose: 95.0 mg/kg/injection, vehicle: carboxymethylcellulose (CMC)) is 98 % of control; the T/C (dose: 191.0 mg/kg/injection, vehicle: carboxymethylcellulose (CMC)) was 77 % of control; the T/C (dose: 383.0 mg/kg/injection, vehicle: carboxymethylcellulose (CMC)) was 108 % of control.

The values are drawn from PubChem BioAssay AID228 (DTP/NCI, 2004).
